Source: patent US20030195168A1, “Therapeutic agents - III” (priority 2000, published 2003)

Experiments:
[1] = tested on: latently HIV-1 infected cell line (U1); assay: Activation of latent HIV from U1 cells (p24 ELISA); format: cell-based, HIV-1 LAI strain; conditions: 20 hr, FIG. 7
Description: However, the regimen is very burdensome, requiring strict adherence to prevent a recurrence of viraemia. Long-lived cells […], such as CD4^+ cells, act as a major latent reservoir and enable the virus to avoid anti-retroviral chemotherapy or immune system surveillance. There is, therefore, an urgent need to find an agent which activates latent virus from the infected cells. Activated virus could then be killed by aggressive anti-retroviral chemotherapy and it has been hypothesized that immune system surveillance could also be improved under these conditions. Such an agent could have utility in other disease states in which virus is sequestered in infected cells, e.g. herpes infections. Anti-cancer agents have been widely investigated as potential anti-HIV agents. […] However, PMA is a known tumor promoter. A latently HIV-1 infected cell line (U1), derived from the promonocytic cell line U937 after infection with HIV-1 LAI strain, was used in these experiments. In the absence of activation, no or little virus (measured as p24 production) is produced by the U1 cell line. […]
Supernatants were collected and viral replication monitored by determination of the amounts of HIV p24 gag protein in the culture supernatants by ELISA, using a NEN Life Science HIV-1 p24 ELISA kit. p24 values were calculated from OD values using a standard curve.

[2] = tested on: Human peripheral blood mononuclear cells (PBMC); assay: Phagocytic activity of PBMC, nitroblue tetrazolium uptake; format: cell-based; conditions: 100 ng/mL; 20 min; controls <2%
Protocol: Human peripheral blood mononuclear cells (PBMC) prepared by standard Ficoll separation comprise approximately 5% monocytes. PBMC were incubated with dihydroethidium, a reduced form of the dye which becomes fluorescent when oxidized by a respiratory burst, then treated in 10% FCS-RPMI 1640 at 37° C. for 15 min with crude E. peplus extract diluted 1/1000 or 100 ng/mL TPA and analyzed by flow cytometry using conventional methods (Handbook of Flow Cytometry Methods, p. 151) The mean channel numbers for fluorescence were 618 (controls) and 818 (E. peplus extract diluted 1/1000). […] Phagocytic activity was determined by a conventional method (Hudson and Hay, Practical Immunology, 3rd edition, p. 74). […] The average of three fields gave figures of <2% (controls), 10% (TPA) and 8.7% (E. peplus sap) cells stained blue.

[3] = tested on: Peripheral blood mononuclear cells (PBMC); assay: Respiratory burst (H2O2) in PBMC, DCFH-DA flow cytometry; format: cell-based; conditions: 15 min at 37° C.; granulocytes, monocytes, lymphocytes
Protocol: Experiments were also carried out using 2′,7′-dichlorofluorescein diacetate (DCFH-DA) to measure the production of H2O2.(J P Robinson, Oxidative burst methods, in Handbook of Flow Cytometry Methods, Wiley-Liss Inc, pp147-149, 1993). H2O2 oxidizes the non-fluorescent probe (DCFH-DA) to a fluorescent probe that can then be detected by a flow cytometer. Peripheral blood mononuclear cells (PBMC) were extracted from a donor blood sample by lysis of heparinized blood and used in a suspension of 1×10^6/mL of phosphate buffer, pH 7.3. The cells were then incubated with DCFH-DA (1 μL/mL of 20 mM stock) for 15 minutes to allow it to be taken up and trapped by hydrolysis with cellular esterases. The cells were then stimulated by test compounds for 15 min at 37° C. Controls included in the experiment were unloaded control (cells with no DCFH-DA) and loaded control (cells with DCFH-DA, but no stimulation). These were used to monitor the non-specific oxidation of unstimulated cells. The cells were then analyzed on the flow cytometer (excitation at 488 nm, emission at 525±20 nm), gating each sample for individual cell populations-granulocytes, monocytes and lymphocytes (Table 3).

[4] = tested on: peripheral blood mononuclear cells (PBMCs); assay: Phagocytosis with fluorescent beads; format: cell-based; conditions: whole heparinized blood, 30 min at 37° C.
Protocol: Phagocytosis by peripheral blood mononuclear cells (PBMCs) was assayed (Steinkamp et al., 1982) using 1 μm Fluoresbrite™ yellow-green fluorescent latex spheres (Polysciences, Inc., Warrington, Pa.). A sample of whole, heparinized blood was treated with drug and 5×10E7 fluorescent latex beads in 10 μL of PBS added per mL of suspension. Cells were incubated and maintained in suspension for 30 min by means of a shaker platform at 37° C. The stirnulated and non-stimulated samples were then lysed to isolate PBMCs. The PBMCs were run on the flow cytometer measuring FITC (excitation at 488 nm, emission at 525±20 nm), gated for fluorescence (phagocytosed spheres) and light scatter (cell size).

[5] = tested on: EBV in Burkitt's lymphoma cell lines (MutuI and BL74); assay: EBV activation in Burkitt's lymphoma cell lines (VCA western blot); format: cell-based
Protocol: To ensure that equal amounts of each sample were analyzed, the gels were stained with Coomassie blue and the loadings were adjusted to make them equal. […] Next the PEP003 and PEP004 were assayed on two Burkitt's lymphoma cell lines and an LCL. This time only concentrations of 10^−5 and 10^−7 were used.

Compound: CCCCCCCCCCCCCC(=O)O[C@@H]1[C@@H](C)[C@@]2(O)[C@@H](C=C(CO)C[C@]3(O)C(=O)C(C)=C[C@@H]23)C2C(C)(C)[C@@]21OC(C)=O (single isomer, unassigned) [TPA]
- activation of HIV from U1 cells (p24 production) [1]: activated HIV from U1 cells
- cells stained blue (NBT) [2]: 10%
- induction of a respiratory burst (H2O2, DCFH-DA) [3]: respiratory burst seen
- stimulation of phagocytosis of fluorescent latex beads [4]: stimulate phagocytosis in PBMCs
- induction of VCA in MutuI cells [5]: TPA did not
